{"source": "patent US7250410B2", "about": "“Cyclic nucleotide phosphodiesterase inhibitors, preparation and uses thereof” (Via Pharmaceuticals, Inc., priority 2001, dated 2007)", "key": {"PDE4": {"biological_target": "PDE4", "experiment": "Inhibition of PDE4, radioenzymatic phosphodiesterase assay", "type": "biochemical, bovine", "summary_of_the_method": "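PDE4 partially purified from bovine aortic media by 105,000 g centrifugation and anion-exchange chromatography with an NaCl gradient. Activity measured radioenzymatically: product nucleoside separated from nucleotides by anion exchange and counted by liquid scintillation.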"}, "PDE1": {"system": "PDE1", "experiment": "Selectivity: inhibition of PDE1, radioenzymatic phosphodiesterase assay", "type": "biochemical, bovine", "set-up": "PDE1 percentage inhibition at 10 μM: unit: %", "settings": "Table 4 Selectivity; compound at 10 μM", "description": "(§1) A 3 g segment of bovine aortic media cut into pieces with scissors was homogenized with an ultra-turrax then a potter glass/glass homogenizer in 7 volumes by weight of buffer A containing a protease inhibitor cocktail (20 mM Tris-HCl, 0.25 M saccharose, 2 mM magnesium acetate, 1 mM dithiothreitol, 5 mM EGTA, 2000 U/ml aprotinin, 10 mg/l leupeptin and 10 mg/l soya trypsic inhibitor). The homogenizate was centrifuged at 105,000 g for 1 hour. The supernatant was loaded on a DEAE-Sephacel column (15×1.6 cm) pre-equilibrated with buffer B (buffer A without the saccharose, EGTA and protease inhibitors). The column was washed until there was no detectable absorption at 280 nm, then eluted with a linear gradient of NaCl (0–0.5 M) in buffer B. 3-ml fractions were collected and enzyme activity was determined under the conditions described hereinafter to localize the different enzymes PDE1, PDE3, PDE4 and PDE5, which were aliquoted and frozen at −80° C. (Lugnier et al., Biochem. Phamacol., 35 (1986) 1746–1751). PDE2 was prepared from bovine endothelial cells by the same methods (Lugnier and Schini, Biochem. Pharmacol. 1990, 39; 75–84).\n(§2) Cyclic nucleotide phosphodiesterase activity was determined by a radioenzymatic method using tritium-labelled cyclic GMP or AMP (1 μM) as substrate (Lugnier et al., 1986). ^3H-labelled adenosine or guanosine monophosphate formed by hydrolysis of the radiolabelled cyclic nucleotide was then converted to ^3H-labelled adenosine or guanosine in a second reaction with […] in excess. The nucleoside formed was separated from the nucleotides by anion exchange chromatography. Nucleoside radioactivity was determined by liquid scintillation counting. Enzymatic incubations were carried out under conditions allowing no more than 15% hydrolysis of the substrate; each point was performed in duplicate.\n(§3) The activity of the compounds was evaluated on other phosphodiesterase isoforms, particularly basal state or calmodulin-activated PDE1 from vascular smooth muscle, basal state or cyclic GMP-activated PDE2 from vascular endothelial cells, PDE3 and PDE5 from vascular smooth muscle.\n(§4) The results obtained are presented in Table 4 hereinafter and are expressed as the percentage inhibition of enzymatic activity produced by […] of the tested compound."}, "PDE2": {"biological_target": "T1, PDE2 (Bos taurus, UniProt P14099)", "T1 construct": "PDE2 was prepared from bovine endothelial cells by the same methods; endogenous in cells; host or cells: bovine vascular endothelial cells, DEAE-Sephacel fraction", "T1 sequence (P14099 1-921)": "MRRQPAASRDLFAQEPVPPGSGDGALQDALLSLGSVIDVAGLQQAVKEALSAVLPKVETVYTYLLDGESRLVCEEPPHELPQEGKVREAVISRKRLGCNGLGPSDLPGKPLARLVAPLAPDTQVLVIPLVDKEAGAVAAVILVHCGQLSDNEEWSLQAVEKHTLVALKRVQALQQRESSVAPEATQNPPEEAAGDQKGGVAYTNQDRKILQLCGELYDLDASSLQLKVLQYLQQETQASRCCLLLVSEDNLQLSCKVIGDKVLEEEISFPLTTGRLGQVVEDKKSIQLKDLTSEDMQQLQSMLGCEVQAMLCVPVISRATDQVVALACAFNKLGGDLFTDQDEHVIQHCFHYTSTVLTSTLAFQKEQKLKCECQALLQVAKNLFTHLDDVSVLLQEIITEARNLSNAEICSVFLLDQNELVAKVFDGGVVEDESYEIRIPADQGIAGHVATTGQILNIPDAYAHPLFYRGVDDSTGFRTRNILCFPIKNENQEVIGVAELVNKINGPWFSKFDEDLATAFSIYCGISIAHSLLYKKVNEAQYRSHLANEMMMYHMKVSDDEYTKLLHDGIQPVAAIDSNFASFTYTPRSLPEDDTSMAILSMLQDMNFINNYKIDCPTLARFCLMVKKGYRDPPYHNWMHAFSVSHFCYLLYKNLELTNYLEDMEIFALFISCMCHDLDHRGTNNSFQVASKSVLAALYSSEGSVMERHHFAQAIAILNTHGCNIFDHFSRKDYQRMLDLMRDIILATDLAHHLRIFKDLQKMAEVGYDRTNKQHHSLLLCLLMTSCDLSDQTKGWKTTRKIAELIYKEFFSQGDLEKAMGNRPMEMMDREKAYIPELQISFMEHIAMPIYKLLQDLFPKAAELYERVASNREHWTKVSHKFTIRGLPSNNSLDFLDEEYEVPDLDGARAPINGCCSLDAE", "experiment": "Selectivity: inhibition of PDE2, radioenzymatic phosphodiesterase assay", "type": "biochemical, bovine", "settings": "Table 4 Selectivity; compound at 10 μM; read-out: PDE2 percentage inhibition at 10 μM", "description": "as §1, §2, §3, §4"}, "PDE5": {"biological_target": "T2, PDE5 (Bos taurus, UniProt Q28156)", "T2 construct": "localize the different enzymes PDE1, PDE3, PDE4 and PDE5, which were aliquoted and frozen; from tissue; host or cells: bovine aortic media (vascular smooth muscle), DEAE-Sephacel fraction", "experiment": "Selectivity: inhibition of PDE5, radioenzymatic phosphodiesterase assay", "type": "biochemical, bovine", "settings": "Table 4 Selectivity; compound at 10 μM; read-out: PDE5 percentage inhibition at 10 μM", "description": "as §1, §2, §3, §4"}, "IL1β, IL6 and IL8": {"system": "IL1β, IL6 and IL8", "experiment": "IL1β, IL6 and IL8 secretion by LPS-activated mononuclear cells from venous blood", "type": "cell-based, human"}}, "note": "Several values for one entry are separate records, joined by “and”; a condition that tells them apart may be missing. Equal entries are not always repeated.", "data": [{"smiles": "CCOc1cc2c(cc1OC)C(c1ccccc1)=NCC(=O)N2C", "note": "[IIda, 8-ethoxy-7-methoxy-1-methyl-5-phenyl-1,3-dihydro-2H-1,4-benzodiazepin-2-one]", "values": [{"measurement": "IC50", "setting": "PDE4; Table 3, formula (II), 1 μM cyclic AMP", "value": "550 nM and 430 nM"}, {"measurement": "IC50", "setting": "PDE4; Table 4 Selectivity", "value": 500, "unit": "nM"}, {"measurement": "PDE1 percentage inhibition at 10 μM", "setting": "PDE1", "value": 26, "unit": "%"}, {"measurement": "inhibition at 10 µM", "setting": "PDE2", "value": 7, "unit": "%"}, {"measurement": "inhibition at 10 µM", "setting": "PDE5", "value": 14, "unit": "%"}, {"measurement": "IL1β, IL6 and IL8 secretion levels", "setting": "IL1β, IL6 and IL8; compound at 1 μM", "value": "not at all altered"}]}, {"smiles": "CCOc1cc2c(cc1OCC)C(c1ccccc1)=NCC(=O)N2", "note": "[XXIIag, 7,8-diethoxy-5-phenyl-1,3-dihydro-2H-1,4-benzodiazepin-2-one]", "values": [{"measurement": "IC50", "setting": "PDE4; Table 2, formula (XXII), 1 μM cyclic AMP", "value": 950, "unit": "nM"}, {"measurement": "IC50", "setting": "PDE4; Table 4 Selectivity", "value": 950, "unit": "nM"}, {"measurement": "PDE1 percentage inhibition at 10 μM", "setting": "PDE1", "value": 46, "unit": "%"}, {"measurement": "inhibition at 10 µM", "setting": "PDE2", "value": 17, "unit": "%"}, {"measurement": "inhibition at 10 µM", "setting": "PDE5", "value": 35, "unit": "%"}, {"measurement": "inhibition of the secretion of IL1β", "setting": "IL1β, IL6 and IL8; in words", "value": "capable of inhibiting the secretion"}]}]}
